Results from paper PMC8020795 (Proceedings of the National Academy of Sciences of the …, 2021).

Experiments:
CXCR4 = CXCR4 (Homo sapiens, UniProt P61073); assay: Human CXCR4-binding assay ([125I]CXCL12 displacement, hCXCR4-transfected HEK293T membranes); set-up: expressed in transfected cells; host or cells: HEK293T
Protocol: concentrations of BPRCX807 in incubation buffer (50 mM HEPES-NaOH, pH 7.4, 100 mM NaCl, 5 mM MgCl2, 1 mM CaCl2, 0.5% BSA). Nonspecific binding was defined in the […]
The reaction mixtures were incubated for 1.5 h at 30 °C and then transferred to a 96 -well GF/B filter plate (Merck Millipore, Billerica, MA).
The reaction mixtures were terminated by manifold filtration and washed with ice-cold wash buffer (50 mM HEPES-NaOH, pH 7.4, 100 mM NaCl) four times. The radioactivity bound to the filter was measured with a TopCount instrument (PerkinElmer, Waltham, MA). The IC50 values were determined as the concentrations of the compounds required to inhibit 50% of the specific binding of [125I]CXCL12 and were calculated by nonlinear regression (GraphPad software, San Diego, CA).
Pharmacokinetics and toxicological studies
Male C57BL/6 mice, each weighing 23.4–25.4 g, were quarantined for 1 week before drug treatment. Compounds dissolved in 100% saline were individually given to mice (n = 3) subcutaneously (6 mg/kg; nonfasted mice). […] The plasma samples were analyzed by liquid chromatography– tandem mass spectrometry (LC–MS/MS), and the data were calculated by a standard noncompartmental method using the Kinetica software program (InnaPhase). […]

CXCR4+CD34+ stem cells = assay: CXCR4+CD34+ stem cell mobilization; type: in vivo, C57BL/6 mice; details: 6 mg/kg SC, peripheral blood 2 h after dosing
Protocol: Cy7, and CD206-APC (BioLegend, San Diego, CA) antibodies, as previously described.[8] Flow cytometry data were acquired on a BD FACSAria III flow cytometer and analyzed with […]
C57BL/6 male mice were treated with potential CXCR4 antagonist individually by subcutaneous injection, and then blood samples containing mobilized stem/progenitor cells were collected 2 hours later. After labeled with specific antibodies, including APC-conjugated anti-CXCR4 (clone 2B11; eBioscience) and FITC-conjugated anti-CD34 (clone RAM34; eBioscience), cells were washed, characterized and quantified by flow cytometer (Guava Technologies, Hayward, CA, USA). Each data point included at least 60,000 events for analysis of other cell types.
(§1) Western blotting was conducted by following standard procedures. HCA-1 or JHH-7 cells (10^5 cells per well) were seeded in 12-well plates (Costar, IL), incubated for 12 h and […]
Reverse transcription quantitative real time PCR
Total RNA was extracted from HCA-1 cells using the RNeasy Mini Kit (Qiagen, CA, USA). cDNAs were synthesized using the High-Capicity cDNA Reverse Transcription Kit (Applied Biosystems, CA, USA). Primers specific for Slug, Fn1, Cdh2, Vim, Foxc2, Zeb1, Zeb2, Twist1, Cdh1, Mta3, Cldn3, Cldn5, β-actin and GAPDH were used, and relative gene expression was determined using Real-Time SYBR Green PCR Master Mix (Applied Biosystems, CA, USA) on a QPCR System. […]

DEN/CCl4-induced HCC = assay: DEN/CCl4-induced liver fibrosis associated HCC model; type: in vivo, C3H mice
Protocol: In vivo hepatocellular carcinoma treatment studies […]
mouse PD-1 (200 µg/mouse; BioXcell, BE0146). The therapeutic efficacy and the changes in immune cells were analyzed after two weeks of treatment. The tumor volume was calculated with the following formula: volume = width × length × height/2. The lung metastatic nodules

HCA-1 cells = assay: Western blot of phospho-ERK and phospho-AKT after CXCL12 stimulation; type: cell-based, murine; details: 20 µM, CXCL12 stimulation
Protocol: as §1
containing (100 ng/mL) serum-free medium. After 24 h, the cells were lysed in RIPA buffer on ice for 30 min, and samples were collected and loaded with 4× Laemmli Sample buffer (Bio-Rad, Hercules, CA). The samples were separated on a 10% SDS-PAGE gels and transferred to PVDF membranes. After blocking with skim milk for 1 h, the membranes were incubated at 4°C overnight with primary antibodies against p -AKT, AKT, p-ERK, ERK (Cell Signaling, Danvers, MA) or β-actin (Sigma-Aldrich, St. Louis, MO) before incubation with HRP-conjugated secondary antibodies (Antibodies Inc., Davis, CA) for 1 h. […]
Total RNA was extracted from HCA-1 cells using the RNeasy Mini Kit (Qiagen, CA, USA). cDNAs were synthesized using the High-Capicity cDNA Reverse Transcription Kit […]
Biosystems, CA, USA) on a QPCR System. The comparative threshold cycle method was used to calculate fold change in gene expression, which was normalized to β-actin as a […]

Chain of CXCR4 (P61073 whole entry): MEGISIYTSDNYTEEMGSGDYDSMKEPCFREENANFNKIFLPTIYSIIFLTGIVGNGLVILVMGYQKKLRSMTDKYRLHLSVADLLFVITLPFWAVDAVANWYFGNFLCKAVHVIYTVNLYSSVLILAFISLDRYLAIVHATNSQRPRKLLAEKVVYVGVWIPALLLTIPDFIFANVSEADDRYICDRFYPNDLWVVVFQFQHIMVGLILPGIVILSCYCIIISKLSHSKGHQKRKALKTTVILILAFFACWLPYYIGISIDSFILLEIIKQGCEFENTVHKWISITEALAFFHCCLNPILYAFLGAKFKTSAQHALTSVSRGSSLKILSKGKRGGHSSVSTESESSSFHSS

Cc1cc(NC2CCN(C(=O)CCNCC(=O)O)CC2)nc(NCc2nc(CCCNCCCNC3CCCCC3)co2)n1 [BPRCX807]
IC50 (CXCR4): 40.4 ± 8 nM | Number of CXCR4+CD34+ stem cells mobilized, relative to AMD3100 (CXCR4+CD34+ stem cells): roughly 1.5 fold | Tumors in fibrotic liver (DEN/CCl4-induced HCC; combination with anti–PD-1, BPRCX807 15 mg/kg/d SC minipump weeks 25 to 28): remarkably suppressed | Tumor size (DEN/CCl4-induced HCC; combination with sorafenib): significantly reduce tumor size more efficiently than sorafenib alone | CXCR4/CXCL12-triggered ERK and Akt activation (HCA-1 cells): suppress CXCR4/CXCL12-triggered ERK and Akt activation more significantly than its counterparts
